Consider four sequences from patent US20090118173A1, “TREATMENT AND PREVENTION OF INFLAMMATORY BOWEL DISEASES” (priority 2006, published 2009).

Test [1] has as its system primed spleen and draining lymph node cells. Briefly: Cytokine production (IFNγ, IL10, IL4, IL5) of peptide-pool primed spleen and draining lymph node cells re-stimulated in vitro. It is filed as cell-based, Balb/c mice. The note with it: mice immunized with peptide pools; in vitro re-stimulation with the individual peptide. The source says: (§1) To define the epitopes more precisely, we divided the 13 peptides, based on the degree of sequence identity between bacterial and the homologous mouse Hsp70s, in three pools (pool A: non-conserved peptides, pool B: conserved peptides comprising at least about 80% amino acid identity to the mouse homologue, and pool C: highly conserved peptides comprising >86% amino acid identity to the mouse homologue, see below) and immunized 10-12 weeks old Balb/c mice twice with a 2 week interval (intraperitoneally and subcutaneously) with the peptide pools. 10 days after the second immunization primed spleen and draining lymph node cells were re-stimulated in vitro with all the 13 individual peptides after which we measured T-cell proliferation (tritium incorporation), IFNγ, IL10, IL4 and IL5 production (cytokine production).

Test [2] shares this test system. Briefly: T-cell proliferation (tritium incorporation) of peptide-pool primed spleen and draining lymph node cells re-stimulated in vitro with individual peptides. Format: cell-based, Balb/c mice. The note with it: mice immunized with peptide pools, in vitro re-stimulation with the individual peptide.
Source text: as §1

Test [3] deals with bacterially primed T-cells. Briefly: Cross reactivity of bacterial peptide primed T cells with corresponding mouse homologue peptides. It is filed as cell-based, Balb/c mice. The note with it: proliferation and cytokine production.
Source text: To test cross-reactivity, i.e. the capacity of selected peptides to induce T cells cross-reactive with homologous self-proteins, the following method can be used (see also Examples):
Any sign of activation (see above) can be taken as an indication of cross-reactivity of the test (e.g. microbial) epitope with the self protein/peptide. Initial testing can be carried out with a synthetic peptide based on the sequence of the self protein/peptide, but final proof for cross-reactivity with the protein/peptide itself, either in isolated form or expressed on cells, is preferably obtained in T cell activation tests with (stressed) antigen presenting cells (over)expressing and presenting the self HSP-peptide, in order to exclude cryptic epitopes.
as §1

Test [4] deals with human MHC class II molecules. The note with it: human B cell line under stress (nutrient deprivation); peptide of the same sequence; cited from earlier work.

Regarding “DEVVAVGAALQAGVL (listed as Mycobacterium tuberculosis) [Peptide B1, mycobacterial hsp70 peptide, pool B (conserved)]”, in test [1], the IFN-gamma result was “increased” and the IL-10 entry was “No”. In addition, in test [2], the T-cell proliferation response entry is “increased”. For the same sequence, the “Cross-reactivity of bacterially primed T-cells with mouse homologue peptide” value (“Cross-reactivity … with mouse homologue peptide” below) in test [3] is “induced cross reactive T cell responses and Yes”.

Turning to “KPFQSVIADTGISVS (listed as Mycobacterium tuberculosis) [Peptide A1, mycobacterial hsp70 peptide, pool A (not conserved)]”, in test [1], the IFN-gamma result was “increased” and the IL-10 entry is on record as “augmented”. The T-cell proliferation response entry in test [2] is “increased”. Moreover, the “Cross-reactivity … with mouse homologue peptide” value in test [3] is given as “no”.

Regarding “VLRIINEPTAAAIAY (listed as Mus musculus) [mC1b]”, in test [4], the “elution from human MHC class II molecules” value is given as “eluted from human MHC class II molecules”.

Regarding “VLRIVNEPTAAALAY (listed as Mycobacterium tuberculosis) [Peptide C1]”, in test [1], the IFN-gamma entry is reported as “increased” and the IL-10 result is on record as “augmented”. In addition, in test [2], the T-cell proliferation response entry is listed as “increased”. Further, in test [3], the “Cross-reactivity … with mouse homologue peptide” value is “induced cross reactive T cell responses and yes”.
